Assay results published in ChEMBL document CHEMBL5244273, “Tuberculosis: An Overview of the Immunogenic Response, Disease Progression, and Medicinal Chemistry Efforts in the Last Decade toward the Development of Potential Drugs for Extensively Drug-Resistant Tuberculosis Strains” (J Med Chem, 2021).
Values after ≈ are worked out from the molar mass of the structure shown.

Tests used:
[1] = tested on: Mycobacterium tuberculosis; assay: Potentiation of ethionamide induced antibacterial activity against Mycobacterium tuberculosis H37Rv expressing GFP incubated for 5 days by fluorescence based analysis; assay type: functional, organism-based; details: 120 h
[2] = tested on: Mycobacterium tuberculosis; assay: Antimycobacterial activity against Mycobacterium tuberculosis H37Rv infected in human THP-1 cells assessed as inhibition of bacterial growth; assay type: functional, organism-based
[3] = tested on: Mycobacterium tuberculosis; assay: Antimycobacterial activity against Mycobacterium tuberculosis H37Rv assessed as inhibition of bacterial growth by resazurin dye based fluorescence analysis; assay type: functional

Structure (SMILES) | EC50 [1] [nM] | IC50 [2] [nM] | MIC [3] [µM]
O=C(CCC(F)(F)F)N1CCC(c2cnc(F)c(F)c2)CC1 | < 150 | 10 | –
O=C(CCC(F)(F)F)N1CCC(F)(c2cncc(C(F)(F)F)c2)CC1 | < 150 | 10 | –
O=C(CCCl)N1CCC2(CC1)CC(C(F)(F)F)=NO2 | < 38 | 50 | –
COC1=NOC2(CCN(C(=O)CCCl)CC2)C1 | < 38 | 50 | –
O=C(CCC(F)(F)F)N1CCC(c2cncc(Cl)n2)CC1 | < 150 | 10 | –
O=C(CCC(F)(F)F)N1CCC(c2ccc(F)nc2F)CC1 | < 150 | 10 | –
O=C(CCC(F)(F)F)N1CC(c2ccc(F)cc2F)C1 | < 10 | 10 | –
O=C(CCC(F)(F)F)N1CCC(c2cccc(F)n2)CC1 | < 150 | 10 | –
O=C(CCC(F)(F)F)N1CC(c2cccc(Cl)c2)C1 | < 10 | 10 | –
N#CC1=NOC2(CCN(C(=O)CCC(F)(F)F)CC2)C1 | < 38 | 50 | –
O=C(CCC(F)(F)F)N1CCC(F)(c2cccnc2)CC1 | < 150 | 10 | –
O=C(CCC(F)(F)F)N1CCC(F)(c2cncc(Cl)c2)CC1 | < 150 | 10 | –
O=C(CCC(F)(F)F)N1CCC(c2ncc(F)cc2F)CC1 | < 150 | 10 | –
COc1ccc(C2CCN(C(=O)CCC(F)(F)F)CC2)cn1 | < 150 | 10 | –
O=C(CCC(F)(F)F)N1CCC(F)(c2ccnc(C(F)(F)F)c2)CC1 | < 150 | 10 | –
O=C(CCC(F)(F)F)N1CCC2(CC1)CC(OCC(F)(F)F)=NO2 | < 38 | 50 | –
O=C(CCC(F)(F)F)N1CCC(F)(c2ccccn2)CC1 | < 150 | 10 | –
O=C(CCC(F)(F)F)N1CC(C2CCCCC2)C1 | < 10 | 10 | –
O=C(CCC(F)(F)F)N1CCC(c2ccnc(Cl)c2)CC1 | < 150 | 10 | –
O=C(CCC(F)(F)F)N1CCC(c2cncc(Cl)c2)CC1 | < 150 | 10 | –
O=C(CCC(F)(F)F)N1CCC(F)(c2ccnc(F)c2)CC1 | < 150 | 10 | –
CCCCCCOC1=NOC2(CCN(C(=O)CCC(F)(F)F)CC2)C1 | < 38 | 50 | –
O=C(CCCC(F)(F)F)N1CCC(c2cncc(Cl)c2)CC1 | < 150 | 10 | –
O=C(CCC(F)(F)F)N1CC(c2cc(F)c(F)c(F)c2)C1 | < 10 | 10 | –
O=C(CCC(F)(F)F)N1CCC2(CC1)CC(F)=NO2 | < 38 | 50 | –

Structure (SMILES) | EC50 [1] [nM] | IC50 [2] [nM] | MIC [3] [µM]
O=C(CCC(F)(F)F)N1CCC(c2cccc(Cl)n2)CC1 | < 150 | 10 | –
CC(C)COC1=NOC2(CCN(C(=O)CCC(F)(F)F)CC2)C1 | < 38 | 50 | –
O=C(CCC(F)(F)F)N1CCC(F)(c2cc(C(F)(F)F)ccn2)CC1 | < 150 | 10 | –
O=C(CCC(F)(F)F)N1CCC(c2cncc(F)c2)CC1 | < 150 | 10 | –
C[C@H](O)CNS(=O)(=O)c1ccc(-c2nnn(Cc3ccc(F)cc3)n2)cc1 | – | – | 0.1 (≈ 0.0391 µg/mL)
O=S(=O)(NCCO)c1ccc(-c2nnn(Cc3ccncn3)n2)cc1 | – | – | 0.1 (≈ 0.0361 µg/mL)
Cc1cc(C2CCN(C(=O)CCC(F)(F)F)CC2)ccn1 | < 150 | 10 | –
O=S(=O)(NCCO)c1ccc(-c2nnn(CC3CCCCC3)n2)cc1 | – | – | 0.1 (≈ 0.0365 µg/mL)
Cc1ccc(Cn2nnc(-c3ccc(S(=O)(=O)NC[C@@H](C)O)cc3)n2)nc1 | – | – | 0.1 (≈ 0.0388 µg/mL)
COc1ccc(Cn2cc(-c3ccc(S(=O)(=O)NCCO)cc3)nn2)cc1 | – | – | 0.1 (≈ 0.0388 µg/mL)
O=C(CCC(F)(F)F)N1CCC(c2cncc(C(F)(F)F)c2)CC1 | < 150 | 10 | –
O=S(=O)(NCCO)c1ccc(-c2nnn(Cc3ccc(F)cn3)n2)cc1Cl | – | – | 0.1 (≈ 0.0413 µg/mL)
O=S(=O)(NCCO)c1ccc(-c2nnn(Cc3ncc(F)cc3F)n2)cc1 | – | – | 0.1 (≈ 0.0396 µg/mL)
O=C(CCC(F)(F)F)N1CCC(c2ccnc(C(F)(F)F)c2)CC1 | < 150 | 10 | –
CC1=NOC2(CCN(C(=O)CCC(F)(F)F)CC2)C1 | < 38 | 50 | –
N#Cc1ccc(Cn2nnc(-c3ccc(S(=O)(=O)NCCO)cc3)n2)nc1 | – | – | 0.1 (≈ 0.0385 µg/mL)
O=C(CCC(F)(F)F)N1CCC(c2cccc(C(F)(F)F)n2)CC1 | < 150 | 10 | –
O=S(=O)(NCCO)c1ccc(-c2nnn(CC3CCCCO3)n2)c(F)c1 (centres undefined) | – | – | 0.1 (≈ 0.0385 µg/mL)
O=C(CCC(F)(F)F)N1CCC(c2cncc(Cl)c2)C1 (centres undefined) | < 150 | 10 | –
N#CCNS(=O)(=O)c1ccc(-c2nnn(Cc3ccc(F)cc3)n2)cc1 | – | – | 0.1 (≈ 0.0372 µg/mL)
NC(=O)CNS(=O)(=O)c1ccc(-c2nnn(Cc3ccncc3)n2)cc1 | – | – | 0.1 (≈ 0.0373 µg/mL)
O=S(=O)(NCCO)c1ccc(-c2nnn(Cc3ccc(Cl)cc3)n2)cc1 | – | – | 0.1 (≈ 0.0394 µg/mL)
CCCOC1=NOC2(CCN(C(=O)CCC(F)(F)F)CC2)C1 | < 38 | 50 | –
NC(=O)CNS(=O)(=O)c1ccc(-c2nnn(CC3CCC(F)(F)CC3)n2)cc1 | – | – | 0.1 (≈ 0.0414 µg/mL)
CNS(=O)(=O)c1ccc(-c2nnn(Cc3ccncc3)n2)cc1 | – | – | 0.1 (≈ 0.033 µg/mL)

Structure (SMILES) | EC50 [1] [nM] | IC50 [2] [nM] | MIC [3] [µM]
O=C(CCC(F)(F)F)N1CCC2(CC1)CC(Br)=NO2 | < 38 | 50 | –
COc1cc(-c2nnn(C(C)c3ccc(F)cc3)n2)ccc1S(=O)(=O)NCC(N)=O (centres undefined) | – | – | 0.1 (≈ 0.0434 µg/mL)
CCC1=NOC2(CCN(C(=O)CCC(F)(F)F)CC2)C1 | < 38 | 50 | –
Cc1ccc(Cn2nnc(-c3ccc(S(=O)(=O)NCCO)cc3)n2)nc1 | – | – | 0.1 (≈ 0.0374 µg/mL)
O=C(CCC(F)(F)F)N1CCC(F)(c2ccc(F)nc2)CC1 | < 150 | 10 | –
O=S(=O)(NCCO)c1ccc(-c2nnn(Cc3cccnn3)n2)cc1 | – | – | 0.1 (≈ 0.0361 µg/mL)
O=C(CCC(F)(F)F)N1CCC(c2ccc(F)cn2)CC1 | < 150 | 10 | –
O=C(CCC(F)(F)F)N1CCC(c2ccc(F)nc2)CC1 | < 150 | 10 | –
NC(=O)CNS(=O)(=O)c1ccc(-c2cn(CC3CCC(F)(F)CC3)nn2)cc1 | – | – | 0.1 (≈ 0.0413 µg/mL)
NC(=O)CNS(=O)(=O)c1ccc(-c2nnn(Cc3ccc(F)cn3)n2)cc1 | – | – | 0.1 (≈ 0.0391 µg/mL)
CCNS(=O)(=O)c1ccc(-c2nnn(Cc3ccncc3)n2)cc1 | – | – | 0.1 (≈ 0.0344 µg/mL)
O=S(=O)(NCCO)c1ccc(-c2nnn(Cc3ccc(F)cn3)n2)c(F)c1 | – | – | 0.1 (≈ 0.0396 µg/mL)
O=S(=O)(NCCO)c1ccc(-c2nnn(Cc3ccnnc3)n2)cc1 | – | – | 0.1 (≈ 0.0361 µg/mL)
NC(=O)CNS(=O)(=O)c1ccc(-c2nnn(Cc3ccc(F)cc3)n2)cc1 | – | – | 0.1 (≈ 0.039 µg/mL)
NC(=O)CNS(=O)(=O)c1ccc(-c2nnn(Cc3ccc(F)c(F)c3)n2)cc1 | – | – | 0.1 (≈ 0.0408 µg/mL)
O=S(=O)(NCCO)c1ccc(-c2cn(Cc3ccc(F)cc3)nn2)cc1 | – | – | 0.1 (≈ 0.0376 µg/mL)
O=S(=O)(NCCO)c1ccc(-c2nnn(CC3CCOCC3)n2)cc1F | – | – | 0.1 (≈ 0.0385 µg/mL)
NC(=O)CNS(=O)(=O)c1ccc(-c2nnn(CC3CCCCO3)n2)cc1 (centres undefined) | – | – | 0.1 (≈ 0.038 µg/mL)
O=S(=O)(NCCO)c1ccc(-c2nnn(CC3CCCCO3)n2)cc1 (centres undefined) | – | – | 0.1 (≈ 0.0367 µg/mL)
COc1cnc(Cn2nnc(-c3ccc(S(=O)(=O)NCC#N)cc3)n2)cn1 | – | – | 0.1 (≈ 0.0386 µg/mL)
N#CCNS(=O)(=O)c1ccc(-c2nnn(Cc3ccncn3)n2)cc1 | – | – | 0.1 (≈ 0.0356 µg/mL)
COc1cc(-c2nnn(Cc3ccncc3)n2)ccc1S(=O)(=O)NCCO | – | – | 0.1 (≈ 0.039 µg/mL)
Cc1cnc(Cn2nnc(-c3ccc(S(=O)(=O)NCC#N)cc3)n2)cn1 | – | – | 0.1 (≈ 0.037 µg/mL)
